Patent US7772383B2, “Chemical PCR: Compositions for enhancing polynucleotide amplification reactions” (The Trustees of Princeton University, priority 2002, dated 2010)

System: bovine brain glycolipid transfer protein (GTP) cDNA (660 bp)
Test: PCR amplification of GTP with lower denaturation/extension temperatures
Format: biochemical
Conditions: for Potency: annealing 55° C., normalized: 1,5-pentanediol (95/72° C.) = 1; for Effective: concentration interval over which target band minus control is at least 50% of maximum volume
Protocol: Amplification reactions were carried out under the following general conditions. Those skilled in the art will appreciate, however, that to the extent that the conditions (set forth in this application) required for specific experiments described in this example were inconsistent with the following general conditions, limited exceptions to the following general conditions were made The general conditions were as follows: 10 Mm Tris-HCl (Ph 8.8), 50 Mm KCl, 1.5 Mm MgCl2, 0.01% (w/v) gelatin, 0.2 Um primers, 0.06 ng/ul template, 0.2 Mm each Dntp, 0.04 U/ul Taq polymerase. The templates used were bovine brain N-WASP cDNA (1518 bp), a 996 by segment of human myeloid leukocyte c-jun cDNA, a 511 by segment of human prostate-specific membrane antigen (PSM) cDNA, and bovine brain glycolipid transfer protein (GTP) cDNA (660 bp). cDNA synthesis was carried out using the FIRST-STRAND® RT-PCR kit from Stratagene on the respective mRNAs purchased from Clontech. All amplification reactions for gene were carried out using a single master batch of cDNA. Taq polymerase and dNTPs were obtained from Stratagene. Primers were obtained from Genosys. Primer melting temperatures (Tms) were calculated using the Genosys oligo calculator program. The sequences of the primers were as follows.
Polymerase chain reactions for the N-WASP gene were conducted on a ROBOCYCLER® Gradient 40 thermal cycler from Stratagene using 100 ul solutions in 600 ul thin-walled tubes. For expediency, amplification of c-jun, PSM and GTP was carried out in a ROBOCYCLER® Gradient 96 thermal cycler from Stratagene using 50 ul solutions in 200 ul thin-walled tubes. Prior to Taq polymerase addition, a hotstart protocol was carried out that consisted of an initial cycle of 95° C. for 5 minutes (11) to ensure complete first-strand separation, followed by a cycle of 54° C. for 5 minutes. Amplifications were run for 30 cycles. Denaturation was done for 1 minute at the minimum temperatures that yielded discernable amplification: 92° C. for N-WASP and 95° C. for c-jun, PSM and GTP. Extension was done at 72° C. for periods depending on target length: 2 minutes for N-WASP, 1.5 minutes for c-jun and GTP, and 1 minute for PSM. Annealings were carried out either at fixed concentrations of additives using temperature gradients of 38-56° C. for N-WASP and 44-58° C. for the other targets, or at varying concentrations of additives using fixed temperatures of 41° C. for N-WASP, 50° C. for c-jun and PSM, and 54° C. for GTP.
Amplification products were analyzed by agarose gel electrophoresis on 0.8% agarose gels in which 20 ul reaction products were loaded with 4 ul loading buffer. Gels were stained with ethidium bromide, visualized on a UV transilluminator (Fisher), and documented by photography. Densitometric quantitation of amplification products was carried out using IMAGE SCANNER® and IMAGE MASTER® software from Amersham Pharmacia. Background correction was done using the software's rolling disc method.
Two phases of investigations were carried out into the use of 62° C. extension temperature in PCR reactions. The first involved concentration gradients with 1,2-butanediol and 1,5-pentanediol employing 62° C. extension and 95° C. denaturation. The first template used was GTP. A larger range of concentrations was employed than usual in the experiments due to the anticipated increase in effective range. These concentrations were: 0.1, 0.31, 0.5, 0.6, 0.8, 0.9 and 1.1M for 1,2-butanediol and 0.01, 0.2, 0.3, 0.4, 0.5, 0.7 and 1.0M for 1,5-pentanediol. The second phase of investigation involved experiments in which the denaturation temperature was lowered to 92° C. The following concentrations were tested: 1,2-butanediol—0.1, 0.3, 0.5, 0.6, 0.7, 0.9, 1.1, 1.3, and 1.4M; 1,5-pentanediol: 0.1, 0.2, 0.3, 0.4, 0.5, 0.7, 1.0, and 1.4M. 1,2-butanediol was also tested with the more GC-rich template c-jun. The following concentrations were tested: 0.1, 0.3, 0.5, 0.7, 0.9, 1.1, 1.4M.

[1] = 92/62° C. denaturation/extension
[2] = 95/62° C. denaturation/extension

Q: What does the source list for `CCC(O)CO` (stereo not drawn) [1,2-Butanediol]?
A: Potency [1]: 1.50; Effective (92/62° C.): 0.50-1.27; Potency [2]: 0.88; Effective (95/62° C.): 0.10-0.82

Q: `OCCCCCO` [1,5-Pentanediol] was tested. Which Potency [1] did it give?
A: The Potency was 1.97.

Q: What about the Effective (92/62° C.) of the same compound?
A: Its Effective is 0.29-0.90.

Q: And the cutoff concentration (92° C. denaturation, 62° C. extension)?
A: Its cutoff concentration is 1.0 M.

Q: And the Potency [2]?
A: Its Potency is 1.49.

Q: And the Effective (95/62° C.)?
A: Its Effective is 0.15-0.63.
